Measured values: patent US9693556B2, “Herbicidal pyridazinone derivatives” (SYNGENTA LIMITED, priority 2011, dated 2017)

Assays:
Type in all cases: in vivo
[1] = tested on: Alopecurus myosuroides (ALOMY); test: Pre-emergence herbicidal glasshouse test on Alopecurus myosuroides; conditions: pre-emergence, 1000 g/h, evaluated after 13 days
Summary of the method: (§1)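 Read-out: percentage herbicidal damage 13 days after spraying, given on a five-point scale (5=80-100%, 4=60-79%, 3=40-59%, 2=20-39%, 1=0-19%). Pots of standard soil; application at 1000 g/h, one day post-sowing for pre-emergence, eight days for post-emergence.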

[2] = tested on: Setaria faberi (SETFA); test: Pre-emergence herbicidal glasshouse test on Setaria faberi; conditions: pre-emergence, 1000 g/h, evaluated after 13 days
Summary of the method: as §1

[3] = tested on: Echinochloa crus-galli (ECHCG); test: Pre-emergence herbicidal glasshouse test on Echinochloa crus-galli; conditions: pre-emergence, 1000 g/h, evaluated after 13 days
Summary of the method: as §1

[4] = tested on: Solanum nigrum (SOLNI); test: Pre-emergence herbicidal glasshouse test on Solanum nigrum; conditions: pre-emergence, 1000 g/h, evaluated after 13 days
Summary of the method: as §1

[5] = tested on: Amaranthus retoflexus (AMARE); test: Pre-emergence herbicidal glasshouse test on Amaranthus retoflexus; conditions: pre-emergence, 1000 g/h, evaluated after 13 days
Summary of the method: as §1

[6] = tested on: Ipomoea hederacea (IPOHE); test: Pre-emergence herbicidal glasshouse test on Ipomoea hederacea; conditions: pre-emergence, 1000 g/h, evaluated after 13 days
Summary of the method: as §1

[7] = tested on: Alopecurus myosuroides (ALOMY); test: Post-emergence herbicidal glasshouse test on Alopecurus myosuroides; conditions: post-emergence, 1000 g/h, evaluated after 13 days
Summary of the method: as §1

[8] = tested on: Setaria faberi (SETFA); test: Post-emergence herbicidal glasshouse test on Setaria faberi; conditions: post-emergence, 1000 g/h, evaluated after 13 days
Summary of the method: as §1

[9] = tested on: Echinochloa crus-galli (ECHCG); test: Post-emergence herbicidal glasshouse test on Echinochloa crus-galli; conditions: post-emergence, 1000 g/h, evaluated after 13 days
Summary of the method: as §1

[10] = tested on: Solanum nigrum (SOLNI); test: Post-emergence herbicidal glasshouse test on Solanum nigrum; conditions: post-emergence, 1000 g/h, evaluated after 13 days
Summary of the method: as §1

[11] = tested on: Amaranthus retoflexus (AMARE); test: Post-emergence herbicidal glasshouse test on Amaranthus retoflexus; conditions: post-emergence, 1000 g/h, evaluated after 13 days
Summary of the method: as §1

[12] = tested on: Ipomoea hederacea (IPOHE); test: Post-emergence herbicidal glasshouse test on Ipomoea hederacea; conditions: post-emergence, 1000 g/h, evaluated after 13 days
Summary of the method: as §1

Compound | PRE Application ALOMY herbicidal damage (five point scale) [1] | PRE Application SETFA herbicidal damage (five point scale) [2] | PRE Application ECHCG herbicidal damage (five point scale) [3] | PRE Application SOLNI herbicidal damage (five point scale) [4] | PRE Application AMARE herbicidal damage (five point scale) [5] | PRE Application IPOHE herbicidal damage (five point scale) [6] | POST Application ALOMY herbicidal damage (five point scale) [7] | POST Application SETFA herbicidal damage (five point scale) [8] | POST Application ECHCG herbicidal damage (five point scale) [9] | POST Application SOLNI herbicidal damage (five point scale) [10] | POST Application AMARE herbicidal damage (five point scale) [11] | POST Application IPOHE herbicidal damage (five point scale) [12] | other results
COCn1ncc(-c2ccccc2S(C)(=O)=O)c(O)c1=O [Compound 1.144] | 5 (5=80-100% damage) | 4 (4=60-79% damage) | 5 (5=80-100% damage) | 5 (5=80-100% damage) | 5 (5=80-100% damage) | 4 (4=60-79% damage) | 5 (5=80-100% damage) | 5 (5=80-100% damage) | 5 (5=80-100% damage) | 5 (5=80-100% damage) | 5 (5=80-100% damage) | 5 (5=80-100% damage) | –
Cn1ncc(-c2cc(OC(F)(F)F)ccc2Cl)c(O)c1=O [Compound 1.100] | 1 (1=0-19% damage) | 1 (1=0-19% damage) | 1 (1=0-19% damage) | 1 (1=0-19% damage) | 1 (1=0-19% damage) | 1 (1=0-19% damage) | 1 (1=0-19% damage) | 1 (1=0-19% damage) | 1 (1=0-19% damage) | 2 (2=20-39% damage) | 2 (2=20-39% damage) | 2 (2=20-39% damage) | –
CCCC[S+]([O-])c1ccccc1-c1cnn(C)c(=O)c1O (stereo not drawn) [Compound 1.047] | 1 (1=0-19% damage) | 1 (1=0-19% damage) | 1 (1=0-19% damage) | 1 (1=0-19% damage) | 1 (1=0-19% damage) | 1 (1=0-19% damage) | 1 (1=0-19% damage) | 1 (1=0-19% damage) | 1 (1=0-19% damage) | 4 (4=60-79% damage) | 3 (3=40-59% damage) | 3 (3=40-59% damage) | –
Cn1ncc(-c2ccc(SCc3ccccc3)cc2S(C)(=O)=O)c(O)c1=O [Compound 2.035] | 3 (3=40-59% damage) | 2 (2=20-39% damage) | 3 (3=40-59% damage) | 5 (5=80-100% damage) | 5 (5=80-100% damage) | 3 (3=40-59% damage) | 4 (4=60-79% damage) | 5 (5=80-100% damage) | 5 (5=80-100% damage) | 5 (5=80-100% damage) | 5 (5=80-100% damage) | 5 (5=80-100% damage) | –
COc1ccc(-c2c(C(F)(F)F)ccn(-c3cnn(C)c(=O)c3O)c2=O)cc1 [Compound 7.033] | 5 (5=80-100% damage) | 5 (5=80-100% damage) | 5 (5=80-100% damage) | 5 (5=80-100% damage) | 5 (5=80-100% damage) | 4 (4=60-79% damage) | 5 (5=80-100% damage) | 5 (5=80-100% damage) | 5 (5=80-100% damage) | 5 (5=80-100% damage) | 5 (5=80-100% damage) | 3 (3=40-59% damage) | –
CC(C)c1cccc(-c2c(C(F)(F)F)ccn(-c3cnn(C)c(=O)c3O)c2=O)c1 [Compound 7.014] | 3 (3=40-59% damage) | 4 (4=60-79% damage) | 3 (3=40-59% damage) | 5 (5=80-100% damage) | 5 (5=80-100% damage) | 1 (1=0-19% damage) | 1 (1=0-19% damage) | 4 (4=60-79% damage) | 5 (5=80-100% damage) | 5 (5=80-100% damage) | 5 (5=80-100% damage) | 3 (3=40-59% damage) | –
Cn1ncc(-c2c(S(C)(=O)=O)ccc(Br)c2Br)c(O)c1=O [Compound 1.161] | – | – | – | – | – | – | – | – | – | – | – | – | herbicidal damage, PRE Application ALOMY ([1]; five point scale): 1 (1=0-19% damage); herbicidal damage, PRE Application SETFA ([2]; five point scale): 1 (1=0-19% damage); herbicidal damage, PRE Application ECHCG ([3]; five point scale): 1 (1=0-19% damage); herbicidal damage, PRE Application SOLNI ([4]; five point scale): 1 (1=0-19% damage); herbicidal damage, PRE Application AMARE ([5]; five point scale): 3 (3=40-59% damage); herbicidal damage, PRE Application IPOHE ([6]; five point scale): 1 (1=0-19% damage); herbicidal damage, POST Application ALOMY ([7]; five point scale): 3 (3=40-59% damage); herbicidal damage, POST Application SETFA ([8]; five point scale): 4 (4=60-79% damage); herbicidal damage, POST Application ECHCG ([9]; five point scale): 4 (4=60-79% damage); herbicidal damage, POST Application SOLNI ([10]; five point scale): 4 (4=60-79% damage); herbicidal damage, POST Application AMARE ([11]; five point scale): 5 (5=80-100% damage); herbicidal damage, POST Application IPOHE ([12]; five point scale): 2 (2=20-39% damage)
Cc1cc(C)c2cc(-c3cnn(C)c(=O)c3O)c(C(F)(F)F)nc2n1 [Compound 5.002] | 1 (1=0-19% damage) | 1 (1=0-19% damage) | 2 (2=20-39% damage) | 1 (1=0-19% damage) | 5 (5=80-100% damage) | 3 (3=40-59% damage) | 1 (1=0-19% damage) | 2 (2=20-39% damage) | 3 (3=40-59% damage) | 5 (5=80-100% damage) | 5 (5=80-100% damage) | 5 (5=80-100% damage) | –
Cc1nc(C(F)(F)F)ccc1-c1cnn(C)c(=O)c1O [Compound 1.067] | 1 (1=0-19% damage) | 1 (1=0-19% damage) | 5 (5=80-100% damage) | 3 (3=40-59% damage) | 4 (4=60-79% damage) | 2 (2=20-39% damage) | 2 (2=20-39% damage) | 4 (4=60-79% damage) | 5 (5=80-100% damage) | 5 (5=80-100% damage) | 5 (5=80-100% damage) | 5 (5=80-100% damage) | –
